Patent US10463592B2, “Peptide with anti-aging effect and use thereof” (Osaka University, priority 2013, dated 2019)

What was measured:
[1] = system: human monocytic cell line THP-1; assay: Sensitization test by the h-CLAT assay (overall evaluation); type: cell-based; details: even at high concentrations; positive if RFI of CD86>150 and RFI of CD54>200; 24 hours
Method: Into a 75-cm^2 flask was placed 50 mL of a suspension of the human monocytic cell line THP-1 (JCRB accession number: JCRB0112) at a density of 2.0×10^5 cells/mL in RPMI 1640 culture medium containing 10% FBS and 0.05 mM mercaptoethanol. The cells were precultured for 48 hours. The precultured THP-1 cells were harvested by centrifugation and suspended at 2.0×10^6 cells/mL in RPMI 1640 culture medium containing 10% FBS and 0.05 mM mercaptoethanol. To each well of 24-well plates, 500 μL of the cell suspension was seeded. To each well containing the seeded cell suspension, 500 μL of each peptide in the same culture medium was added. […] Then, 1×10^4 living cells were analyzed by flow cytometry to determine the expression levels of the cell surface antigens. […] The relative fluorescence intensities (RFIs) were calculated from the mean of the measured fluorescence intensities (MFIs) in accordance with the following equation.
From the survival rates and the RFI values of CD86 and CD54 expressions, the sensitization potentials were evaluated. The sensitization potentials of the test samples were determined to be positive when the RFIs of the antigen expressions in the sample treatment groups satisfy the following equations: the RFI of CD86>150, and the RFI of CD54>200. […]

NHDF (NB) cells = assay: Hyaluronic acid production by fibroblasts, ELISA; type: cell-based, human; details: for Hyaluronic acid production (% of control): highest value over 3, 10, 30, 100 and 300 μM, 5 days
Method: The amount of the hyaluronic acid production by fibroblasts was determined by ELISA. As a control, a group containing no peptide was used. NHDF (NB) cells were seeded in 24-well plates and cultured overnight (2×10^4 cells/500 μL per well). The culture medium used was Medium 106 (containing 1% FBS without growth supplements). Twenty hours after cell seeding, 500 μL of a solution of each peptide in the culture medium was added to each well to a final peptide concentration of 3, 10, 30, 100 or 300 μM. To control wells, 500 μL of the culture medium alone was added. The cells were cultured in a 5% CO2 incubator at 37° C. for 5 days. After the culture, the culture supernatant was transferred into a 1.5-mL tube and centrifuged at 15,000 rpm at 4° C. for 5 minutes, and the supernatant was harvested in a fresh tube. The amount of hyaluronic acid in the culture supernatant was determined using QnE Hyaluronic Acid (HA) ELISA Assay (Biotech Trading Partners) in accordance with the kit protocol. The percent hyaluronic acid production was calculated as the ratio (%) of the ELISA absorbance of each peptide addition group to that of the control group. The effect of promoting hyaluronic acid production was evaluated on the basis of the percent hyaluronic acid production.
The examination was conducted in the same manner as in Example 4 except that the percent hyaluronic acid production was determined as follows: the amount of hyaluronic acid was quantified from the ELISA calibration curve and the quantified value was used to calculate the ratio (%) of the amount of the hyaluronic acid production of each peptide addition group to that of the control group.

[2] = system: Normal human dermal fibroblasts (NHDF); assay: Fibroblast growth-promoting activity, Cell Counting Kit (WST-1); type: cell-based; details: for Fibroblast growth (% of control): NHDF, 2 days culture, WST-1
Method: The fibroblast growth-promoting activity of the peptides was determined using Cell Counting Kit (WST-1) (Dojindo Laboratories). As a control, a group containing no peptide was used. Normal human dermal fibroblasts (from newborns) (Kurabo Industries Ltd., hereinafter called NHDF) were seeded in 96-well plates (0.5×10^4 cells/100 μL per well). The culture medium used was Medium 106 (containing 1% FBS without growth supplements). About 3 hours after cell seeding, 100 μL of a solution of each peptide in the culture medium was added to a final peptide concentration of 0.3, 1, 3, 10, or 30 μM. To control wells, 100 μL of the culture medium alone was added. To blank wells containing no cells, 200 μL of the culture medium alone was added. The cells were cultured in a CO2 incubator for 2 days. After the culture, 20 μL of the WST-1 reagent was added to each well and the plates were allowed to stand in a CO2 incubator for about 2 to 4 hours. The absorbance at 450 nm and 620 nm was determined with a microplate reader (Wallac 1420 ARVOsx (program: WST-1)), and the measured values were corrected by the equation: OD450-OD620. The net OD450 was calculated by subtracting the mean OD450-OD620 of the blank wells from the OD450-OD620 of the test wells. The percent fibroblast growth was calculated as the ratio (%) of the net OD450 of each peptide addition group to that of the control group. The effect of promoting fibroblast growth was evaluated on the basis of the percent fibroblast growth.
The examination was conducted in the same manner as in Example 2 except that the concentration of each peptide was set at 3, 10, 30, 100 or 300 μM.

[3] = Example 4, 3 to 300 μM, ELISA absorbance ratio
[4] = ratio of ELISA absorbance (Example 4)
[5] = highest value over 0.3, 1, 3, 10 and 30 μM
[6] = Example 5, 3 to 300 μM, ELISA calibration curve
[7] = amount quantified from ELISA calibration curve (Example 5)
[8] = at concentrations of 0.3 to 30 μM (Example 2)
[9] = at concentrations of 30 to 300 μM (Example 3)
[10] = highest value over 3, 10, 30, 100 and 300 μM

Substance | sensitization potential [1] | increase of hyaluronic acid production by fibroblasts (NHDF (NB) cells; [3]) | Hyaluronic acid production (% of control) (NHDF (NB) cells; [4]) | Fibroblast growth (% of control) [2, 5] | increase of hyaluronic acid production by fibroblasts (NHDF (NB) cells; [6]) | Hyaluronic acid production (% of control) (NHDF (NB) cells; [7]) | effect of promoting fibroblast growth [2, 8] | effect of promoting fibroblast growth [2, 9] | Fibroblast growth (% of control) [2, 10]
Ac-HRLKR-NH2 [OSK-9, HRLKR] | negative |  |  |  |  |  |  |  | 
ELKLI (Ac-ELKLI-NH2) [OSK-2] |  | increased the amount of the hyaluronic acid production by fibroblasts | 184.0 % of control | 99.7 % of control |  |  |  |  | 
ELKLIFLHRLKRLRKRLKRK (Ac-ELKLIFLHRLKRLRKRLKRK-NH2) [OSK-1] |  |  |  | 146.4 % of control | increased the amount of the hyaluronic acid production by fibroblasts | 2715.8 % of control | exhibited the effect of promoting fibroblast growth | exhibited the effect of promoting fibroblast growth | 144.9 % of control
FLHRL (Ac-FLHRL-NH2) [OSK-7] |  |  | 75.2 % of control | 96.8 % of control |  |  |  |  | 
HRLKR [OSK-20] |  |  |  |  |  | 94.0 % of control |  |  | 
KLIFL (Ac-KLIFL-NH2) [OSK-4] |  | increased the amount of the hyaluronic acid production by fibroblasts | 212.4 % of control | 102.6 % of control |  |  | exhibited the effect of promoting fibroblast growth |  | 
KRLKR (Ac-KRLKR-NH2) [OSK-16] |  | increased the amount of the hyaluronic acid production by fibroblasts | 110.6 % of control | 106.1 % of control |  |  | exhibited the effect of promoting fibroblast growth |  | 
KRLRK (Ac-KRLRK-NH2) [OSK-12] |  |  | 72.0 % of control | 100.3 % of control |  |  | exhibited the effect of promoting fibroblast growth |  | 
LHRLK (Ac-LHRLK-NH2) [OSK-8] |  | increased the amount of the hyaluronic acid production by fibroblasts | 110.5 % of control | 98.8 % of control |  |  |  |  | 
LIFLH (Ac-LIFLH-NH2) [OSK-5] |  |  | 65.6 % of control | 97.6 % of control |  |  |  |  | 
LKLIF (Ac-LKLIF-NH2) [OSK-3] |  |  | 79.9 % of control | 104.7 % of control |  |  | exhibited the effect of promoting fibroblast growth |  | 
LKR [OSK-19] (Ac-Leu-Lys-Arg-NH2) |  |  |  |  | increased the amount of the hyaluronic acid production by fibroblasts | 117.6 % of control |  |  | 
LKR [OSK-23] |  |  |  |  | increased the amount of the hyaluronic acid production by fibroblasts | 113.7 % of control |  |  | 
LKRLR [OSK-11] |  | increased the amount of the hyaluronic acid production by fibroblasts | 112.1 % of control | 112.5 % of control | increased the amount of the hyaluronic acid production by fibroblasts | 255.0 % of control | exhibited the effect of promoting fibroblast growth | exhibited the effect of promoting fibroblast growth | 158.5 % of control
LRKRL (Ac-LRKRL-NH2) [OSK-14] |  | increased the amount of the hyaluronic acid production by fibroblasts | 123.6 % of control | 106.8 % of control |  |  | exhibited the effect of promoting fibroblast growth |  | 
RKRLK (Ac-RKRLK-NH2) [OSK-15] |  | increased the amount of the hyaluronic acid production by fibroblasts | 103.9 % of control | 102.9 % of control |  |  | exhibited the effect of promoting fibroblast growth |  | 
RLKR [OSK-18] (Ac-RLKR-NH2) |  |  |  |  | increased the amount of the hyaluronic acid production by fibroblasts | 131.9 % of control |  |  | 
RLKR [OSK-22] |  |  |  |  | increased the amount of the hyaluronic acid production by fibroblasts | 101.1 % of control |  |  | 
RLKRK (Ac-RLKRK-NH2) [OSK-17] |  |  | 81.8 % of control | 104.2 % of control |  |  | exhibited the effect of promoting fibroblast growth |  | 
RLKRL [OSK-10] |  | increased the amount of the hyaluronic acid production by fibroblasts | 198.2 % of control | 116.2 % of control | increased the amount of the hyaluronic acid production by fibroblasts | 409.1 % of control | exhibited the effect of promoting fibroblast growth | exhibited the effect of promoting fibroblast growth | 149.9 % of control
RLKRL [OSK-21] |  |  |  |  | increased the amount of the hyaluronic acid production by fibroblasts | 109.3 % of control |  |  | 
RLRKR (Ac-RLRKR-NH2) [OSK-13] |  |  | 74.3 % of control | 99.3 % of control |  |  |  |  | 
